Test results published in ChEMBL document CHEMBL1201861, “Genomics of Drug Sensitity in Cancer screening data, Wellcome Trust Sanger Institute”.

Assays:
Assay in all cases: cells
COR-L88 = assay type: functional, cell-based, Homo sapiens; details: Homo sapiens, COR-L88;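 further: growth inhibition of COR-L88 cells, read out with a cell viability assay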
Description: SANGER: Inhibition of human COR-L88 cell growth in a cell viability assay.

CW-2 = assay type: functional, cell-based, Homo sapiens; details: Homo sapiens, CW-2;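 further: growth inhibition of CW-2 cells, read out by a cell viability assay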
Description: SANGER: Inhibition of human CW-2 cell growth in a cell viability assay.

DJM-1 = assay type: functional, cell-based, Homo sapiens; details: Homo sapiens, DJM-1;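 further: growth inhibition of human DJM-1 cells, read out by a cell viability assay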
Description: SANGER: Inhibition of human DJM-1 cell growth in a cell viability assay.

EKVX = assay type: functional, cell-based, Homo sapiens; details: Homo sapiens, EKVX;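 further: growth inhibition of human EKVX cells, read out with a cell viability assay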
Description: SANGER: Inhibition of human EKVX cell growth in a cell viability assay.

ES5 = assay type: functional, cell-based, Homo sapiens; details: Homo sapiens, ES5;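 further: growth inhibition of human ES5 cells, read out by a cell viability assay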
Description: SANGER: Inhibition of human ES5 cell growth in a cell viability assay.

ES8 = assay type: functional, cell-based, Homo sapiens; details: Homo sapiens, ES8;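 further: growth inhibition of human ES8 cells, read out with a cell viability assay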
Description: SANGER: Inhibition of human ES8 cell growth in a cell viability assay.

EW-16 = assay type: functional, cell-based, Homo sapiens; details: Homo sapiens, EW-16;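 further: growth inhibition of human EW-16 cells, read out as cell viability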
Description: SANGER: Inhibition of human EW-16 cell growth in a cell viability assay.

GI-1 = assay type: functional, cell-based, Homo sapiens; details: Homo sapiens, GI-1;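 further: growth inhibition of human GI-1 cells, measured with a cell viability readout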
Description: SANGER: Inhibition of human GI-1 cell growth in a cell viability assay.

HCC1187 = assay type: functional, cell-based, Homo sapiens; details: Homo sapiens, HCC1187;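 further: growth inhibition of HCC1187 cells, read out with a cell viability assay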
Description: SANGER: Inhibition of human HCC1187 cell growth in a cell viability assay.

HCE-4 = assay type: functional, cell-based, Homo sapiens; details: Homo sapiens, HCE-4;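 further: cell viability assay measuring inhibition of growth in the human HCE-4 cell line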
Description: SANGER: Inhibition of human HCE-4 cell growth in a cell viability assay.

HD-MY-Z = assay type: functional, cell-based, Homo sapiens; details: Homo sapiens, HD-MY-Z;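 further: growth inhibition of HD-MY-Z cells, read out with a cell viability assay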
Description: SANGER: Inhibition of human HD-MY-Z cell growth in a cell viability assay.

HL-60 = assay type: functional, cell-based, Homo sapiens; details: Homo sapiens, HL-60;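 further: growth inhibition of human HL-60 cells, read out with a cell viability assay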
Description: SANGER: Inhibition of human HL-60 cell growth in a cell viability assay.

IST-MES1 = assay type: functional, cell-based, Homo sapiens; details: Homo sapiens, IST-MES1;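 further: growth inhibition of IST-MES1 cells, measured with a cell viability assay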
Description: SANGER: Inhibition of human IST-MES1 cell growth in a cell viability assay.

K562 = assay type: functional, cell-based, Homo sapiens; details: Homo sapiens, K562
Description: SANGER: Inhibition of human K-562 cell growth in a cell viability assay.

KE-37 = assay type: functional, cell-based, Homo sapiens; details: Homo sapiens, KE-37;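 further: growth inhibition of KE-37 cells, read out with a cell viability assay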
Description: SANGER: Inhibition of human KE-37 cell growth in a cell viability assay.

KG-1 = assay type: functional, cell-based, Homo sapiens; details: Homo sapiens, KG-1;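 further: growth inhibition of KG-1 cells, read out by a cell viability assay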
Description: SANGER: Inhibition of human KG-1 cell growth in a cell viability assay.

KINGS-1 = assay type: functional, cell-based, Homo sapiens; details: Homo sapiens, KINGS-1;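 further: cell viability assay measuring suppression of KINGS-1 cell growth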
Description: SANGER: Inhibition of human KINGS-1 cell growth in a cell viability assay.

KM-H2 = assay type: functional, cell-based, Homo sapiens; details: Homo sapiens, KM-H2;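 further: growth inhibition of KM-H2 cells, read out by a cell viability assay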
Description: SANGER: Inhibition of human KM-H2 cell growth in a cell viability assay.

KS-1 = assay type: functional, cell-based, Homo sapiens; details: Homo sapiens, KS-1;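 further: growth inhibition of KS-1 cells, read out with a cell viability assay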
Description: SANGER: Inhibition of human KS-1 cell growth in a cell viability assay.

KURAMOCHI = assay type: functional, cell-based, Homo sapiens; details: Homo sapiens, KURAMOCHI;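 further: growth inhibition of KURAMOCHI cells, read out with a cell viability assay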
Description: SANGER: Inhibition of human KURAMOCHI cell growth in a cell viability assay.

LB2241-RCC = assay type: functional, cell-based, Homo sapiens; details: Homo sapiens, LB2241-RCC;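 further: cell viability assay measuring how strongly the cultured human renal carcinoma line is prevented from growing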
Description: SANGER: Inhibition of human LB2241-RCC cell growth in a cell viability assay.

LB373-MEL-D = assay type: functional, cell-based, Homo sapiens; details: Homo sapiens, LB373-MEL-D;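 further: growth inhibition of the cell line, read out in a cell viability assay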
Description: SANGER: Inhibition of human LB373-MEL-D cell growth in a cell viability assay.

LU-134-A = assay type: functional, cell-based, Homo sapiens; details: Homo sapiens, LU-134-A
Description: SANGER: Inhibition of human LU-134-A cell growth in a cell viability assay.

LU-139 = assay type: functional, cell-based, Homo sapiens; details: Homo sapiens, LU-139
Description: SANGER: Inhibition of human LU-139 cell growth in a cell viability assay.

MC116 = assay type: functional, cell-based, Homo sapiens; details: Homo sapiens, MC116;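 further: growth inhibition of MC116 cells, read out with a cell viability assay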
Description: SANGER: Inhibition of human MC116 cell growth in a cell viability assay.

MEG-01 = assay type: functional, cell-based, Homo sapiens; details: Homo sapiens, MEG-01;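 further: growth inhibition of MEG-01 cells, read out by a cell viability assay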
Description: SANGER: Inhibition of human MEG-01 cell growth in a cell viability assay.

MLMA = assay type: functional, cell-based, Homo sapiens; details: Homo sapiens, MLMA;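 further: growth inhibition of MLMA cells (human), determined through a cell viability readout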
Description: SANGER: Inhibition of human MLMA cell growth in a cell viability assay.

MMAC-SF = assay type: functional, cell-based, Homo sapiens; details: Homo sapiens, MMAC-SF;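 further: growth inhibition of human MMAC-SF cells, read out with a cell viability assay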
Description: SANGER: Inhibition of human MMAC-SF cell growth in a cell viability assay.

MOLT-4 = assay type: functional, cell-based, Homo sapiens; details: Homo sapiens, MOLT-4;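 further: growth inhibition of MOLT-4 cells, determined with a cell viability readout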
Description: SANGER: Inhibition of human MOLT-4 cell growth in a cell viability assay.

Mo = assay type: functional, cell-based, Homo sapiens; details: Homo sapiens, Mo
Description: SANGER: Inhibition of human Mo-T cell growth in a cell viability assay.

NCI-H1155 = assay type: functional, cell-based, Homo sapiens; details: Homo sapiens, NCI-H1155;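 further: cell growth inhibition measured by a viability assay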
Description: SANGER: Inhibition of human NCI-H1155 cell growth in a cell viability assay.

NCI-H1770 = assay type: functional, cell-based, Homo sapiens; details: Homo sapiens, NCI-H1770;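 further: growth inhibition of NCI-H1770 cells determined with a viability readout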
Description: SANGER: Inhibition of human NCI-H1770 cell growth in a cell viability assay.

NCI-H1838 = assay type: functional, cell-based, Homo sapiens; details: Homo sapiens, NCI-H1838;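 further: growth inhibition of NCI-H1838 cells, determined with a cell viability readout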
Description: SANGER: Inhibition of human NCI-H1838 cell growth in a cell viability assay.

NCI-H209 = assay type: functional, cell-based, Homo sapiens; details: Homo sapiens, NCI-H209;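 further: growth inhibition of human NCI-H209 cells, measured by a cell viability assay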
Description: SANGER: Inhibition of human NCI-H209 cell growth in a cell viability assay.

NCI-H23 = assay type: functional, cell-based, Homo sapiens; details: Homo sapiens, NCI-H23;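 further: cell viability assay measuring growth inhibition of NCI-H23 cells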
Description: SANGER: Inhibition of human NCI-H23 cell growth in a cell viability assay.

NOS-1 = assay type: functional, cell-based, Homo sapiens; details: Homo sapiens, NOS-1;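 further: growth inhibition of the human NOS-1 cell line, read out with a cell viability assay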
Description: SANGER: Inhibition of human NOS-1 cell growth in a cell viability assay.

NTERA-2-cl-D1 = assay type: functional, cell-based, Homo sapiens; details: Homo sapiens, NTERA-2-cl-D1;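 further: inhibition of cell growth, measured with a cell viability assay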
Description: SANGER: Inhibition of human NTERA-S-cl-D1 cell growth in a cell viability assay.

OS-RC-2 = assay type: functional, cell-based, Homo sapiens; details: Homo sapiens, OS-RC-2;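 further: growth inhibition of human OS-RC-2 cells, measured by a cell viability assay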
Description: SANGER: Inhibition of human OS-RC-2 cell growth in a cell viability assay.

PSN1 = assay type: functional, cell-based, Homo sapiens; details: Homo sapiens, PSN1;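 further: suppression of growth of human PSN1 cells, read out by a cell viability assay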
Description: SANGER: Inhibition of human PSN1 cell growth in a cell viability assay.

RCC10RGB = assay type: functional, cell-based, Homo sapiens; details: Homo sapiens, RCC10RGB;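 further: growth inhibition of human RCC10RGB cells, read out by a cell viability assay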
Description: SANGER: Inhibition of human RCC10RGB cell growth in a cell viability assay.

RKO = assay type: functional, cell-based, Homo sapiens; details: Homo sapiens, RKO;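 further: growth inhibition of human RKO cells, read out with a cell viability assay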
Description: SANGER: Inhibition of human RKO cell growth in a cell viability assay.

SF-539 = assay type: functional, cell-based, Homo sapiens; details: Homo sapiens, SF-539;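 further: Read-out is a cell viability assay, with IC50 reflecting inhibition of cell growth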
Description: SANGER: Inhibition of human SF539 cell growth in a cell viability assay.

SHP77 = assay type: functional, cell-based, Homo sapiens, SHP-77; details: Homo sapiens, SHP77;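 further: growth inhibition of human SHP-77 cells measured by a cell viability assay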
Description: SANGER: Inhibition of human SHP-77 cell growth in a cell viability assay.

SW 954 = assay type: functional, cell-based, Homo sapiens; details: Homo sapiens, SW 954;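 further: growth inhibition of SW954 human cancer cells, read out as cell viability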
Description: SANGER: Inhibition of human SW954 cell growth in a cell viability assay.

A388 = assay type: functional, cell-based, Homo sapiens; details: Homo sapiens, A388;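 further: growth inhibition of human A388 cells, read out with a cell viability assay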
Description: SANGER: Inhibition of human A388 cell growth in a cell viability assay.

A4-Fuk = assay type: functional, cell-based, Homo sapiens; details: Homo sapiens, A4-Fuk;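 further: growth inhibition of A4-Fuk cells, read out by a cell viability assay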
Description: SANGER: Inhibition of human A4-Fuk cell growth in a cell viability assay.

TK-10 = assay type: functional, cell-based, Homo sapiens; details: Homo sapiens, TK-10;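 further: growth inhibition of TK-10 cells, read out in a cell viability assay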
Description: SANGER: Inhibition of human TK10 cell growth in a cell viability assay.

no-10 = assay type: functional, cell-based, Homo sapiens; details: Homo sapiens;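 further: growth inhibition of no-10 cells, read out with a cell viability assay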
Description: SANGER: Inhibition of human no-10 cell growth in a cell viability assay.

COLO-320-HSR = assay type: functional, cell-based, Homo sapiens; details: Homo sapiens, COLO-320-HSR;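 further: growth inhibition of COLO-320-HSR cells, determined with a cell viability assay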
Description: SANGER: Inhibition of human COLO-320-HSR cell growth in a cell viability assay.

SMILES: CC(=O)O[C@H]1C(=O)[C@@]2(C)[C@H]([C@H](OC(=O)c3ccccc3)[C@]3(O)C[C@H](OC(=O)[C@H](O)[C@@H](NC(=O)c4ccccc4)c4ccccc4)C(C)=C1C3(C)C)[C@]1(OC(C)=O)CO[C@@H]1C[C@@H]2O [PACLITAXEL]
- IC50 (COR-L88): 59.3 nM
- IC50 (CW-2): > 102 nM
- IC50 (DJM-1): 5.3 nM
- IC50 (EKVX): > 102 nM
- IC50 (ES5): > 102 nM
- IC50 (ES8): 5.38 nM
- IC50 (EW-16): 6.94 nM
- IC50 (GI-1): 13.7 nM
- IC50 (HCC1187): 19.2 nM
- IC50 (HCE-4): 7.67 nM
- IC50 (HD-MY-Z): 11.6 nM
- IC50 (HL-60): 9.66 nM
- IC50 (IST-MES1): 79.1 nM
- IC50 (K562): 15.2 nM
- IC50 (KE-37): 12.3 nM
- IC50 (KG-1): > 102 nM
- IC50 (KINGS-1): 23.6 nM
- IC50 (KM-H2): 33.1 nM
- IC50 (KS-1): 5.82 nM
- IC50 (KURAMOCHI): 7.48 nM
- IC50 (LB2241-RCC): > 102 nM
- IC50 (LB373-MEL-D): 41.1 nM
- IC50 (LU-134-A): 47.7 nM
- IC50 (LU-139): 59.9 nM
- IC50 (MC116): 2.89 nM
- IC50 (MEG-01): 29.8 nM
- IC50 (MLMA): 74.6 nM
- IC50 (MMAC-SF): 45.3 nM
- IC50 (MOLT-4): 1.49 nM
- IC50 (Mo): > 102 nM
- IC50 (NCI-H1155): > 102 nM
- IC50 (NCI-H1770): > 102 nM
- IC50 (NCI-H1838): > 102 nM
- IC50 (NCI-H209): 97.9 nM
- IC50 (NCI-H23): > 102 nM
- IC50 (NOS-1): 6.5 nM
- IC50 (NTERA-2-cl-D1): 2.09 nM
- IC50 (OS-RC-2): 77.5 nM
- IC50 (PSN1): 1.3 nM
- IC50 (RCC10RGB): > 102 nM
- IC50 (RKO): 2.98 nM
- IC50 (SF-539): 24 nM
- IC50 (SHP77): > 102 nM
- IC50 (SW 954): 1.19 nM
- IC50 (A388): 8.74 nM
- IC50 (A4-Fuk): 6.11 nM
- IC50 (TK-10): 33.6 nM
- IC50 (no-10): 3.62 nM
- IC50 (COLO-320-HSR): > 102 nM
